Data published in patent publication US20090258888A1, “Pyrimidine Derivatives” (Bayer Pharmaceuticals Corporation, priority 2005, published 2009).
Where a name gives a salt, the structure may show the parent alone. Read-outs that look alike come from different tables or passages of the source.

Test system: HCT116 cells
Test: HCT116 cytotoxic activity assay
Format: cell-based
Settings: Homo sapiens, HCT-116, 72 h with compound, Alamar Blue readout
[1] = read-out: IC50 in the HCT116 cytotoxic activity assay
[2] = read-out: IC50 in the HCT116 cytotoxic activity assay (upper bound of the class >500 nM)

Procedure: Human tumor cells, e.g., HCT116 cells, are seeded in a 96-well plate at 3.0×10^3 cells/well and grown in 100 μl of RPMI complete media (Invitrogen Corporation, Grand Island, N.Y.) containing 10% fetal bovine serum (Hyclone, Logan, Utah) and 10 mM HEPES and at 37° C. for 16 h in an incubator with 5% CO2. To each well, 50 μl of additional growth media containing 20 μM to 60 nM concentrations of compound with 0.2% DMSO is added. Cells are grown for another 72 h at 37° C. 20 μl of Alamar Blue (Trek Diagnostic Systems, Inc., Cleveland, Ohio) reagent is added to each well and incubated for 4 h at 37° C. Plates are read in a SpectraMax Gemini (Molecular Devices, CA) with 544 nm excitation and 590 nm emission wavelength. IC50 values are determined by linear regression analysis of log drug concentration versus percent inhibition.

SMILES | IC50 [1] [nM] | IC50 [2] [nM]
COc1cccc(CCc2cc(Nc3ccc(Oc4ccnc(C(F)(F)F)c4)cc3)nc(N)n2)c1 [Example 31, 6-[2-(3-methoxyphenyl)ethyl]-N4-(4-{[2-(trifluoromethyl)pyridin-4-yl]oxy}phenyl)pyrimidine-2,4-diamine] | ≤ 500 | 
Nc1nc(CCc2cccc(O)c2)cc(Nc2ccc(Oc3ccnc(C(F)(F)F)c3)cc2)n1 [Example 35, 3-(2-{2-amino-6-[(4-{[2-(trifluoromethyl)pyridin-4-yl]oxy}phenyl)-amino]pyrimidin-4-yl}ethyl)phenol] | > 500 | ≤ 10000
Nc1nc(/C=C/c2ccc(F)cc2)cc(Nc2ccc(Oc3ccnc(C(F)(F)F)c3)cc2)n1 [Example 5, 6-[(E)-2-(4-fluorophenyl)vinyl]-N^4-(4-{[2-(trifluoromethyl)pyridin-4-yl]oxy}phenyl)pyrimidine-2,4-diamine] | ≤ 500 | 
C=C(OCC)c1cc(Nc2ccc(Oc3ccnc(C(F)(F)F)c3)cc2)nc(N)n1 [Example 1, 6-(1-ethoxyvinyl)-N^4-(4-{[2-(trifluoromethyl)pyridin-4-yl]oxy}phenyl)pyrimidine-2,4-diamine] | > 500 | ≤ 10000
Nc1ccc(/C=C\c2cc(Nc3ccc(Oc4ccnc(C(F)(F)F)c4)cc3)nc(N)n2)cc1 [Example 39B, 6-[(Z)-2-(4-aminophenyl)vinyl]-N^4-(4-{[2-(trifluoromethyl)pyridin-4-yl]oxy}phenyl)pyrimidine-2,4-diamine trifluoroacetate] | > 500 | ≤ 10000
NCCCc1cc(Nc2ccc(Oc3ccnc(C(F)(F)F)c3)cc2)nc(N)n1 [Example 14, 6-(3-aminopropyl)-N^4-(4-{[2-(trifluoromethyl)pyridin-4-yl]oxy}phenyl)pyrimidine-2,4-diamine hydrochloride] | > 500 | ≤ 10000
Nc1nc(CCCCO)cc(Nc2ccc(Oc3ccnc(C(F)(F)F)c3)cc2)n1 [Example 15, 4-{2-amino-6-[(4-{[2-(trifluoromethyl)pyridin-4-yl]oxy}phenyl)amino]pyrimidin-4-yl}butan-1-ol] | ≤ 500 | 
CC(O)c1cc(Nc2ccc(Oc3ccnc(C(F)(F)F)c3)cc2)nc(N)n1 (stereo not drawn) [Example 2, 1-{2-amino-6-[(4-{[2-(trifluoromethyl)pyridin-4-yl]ox-}phenyl)amino]pyrimidin-4-yl}ethanol] | > 500 | ≤ 10000
Cc1cc(Oc2ccc(Nc3cc(/C=C/c4ccccc4)nc(N)n3)cc2)ccn1 [Example 41, N^4-{4-[(2-methylpyridin-4-yl)oxy]phenyl}-6-[(E)-2-phenylvinyl]-pyrimidine-2,4-diamine] | ≤ 500 | 
Nc1nc(CCc2ccc(F)cc2)cc(Nc2ccc(Oc3ccnc(C(F)(F)F)c3)cc2)n1 [Example 29, 6-[2-(4-fluorophenyl)ethyl]-N^4-(4-{[2-(trifluoromethyl)pyridin-4-yl]oxy}phenyl)pyrimidine-2,4-diamine] | ≤ 500 | 
Nc1nc(CCCO)cc(Nc2ccc(Oc3ccnc(C(F)(F)F)c3)cc2)n1 [Example 16, 4-{2-amino-6-[(4-{[2-(trifluoromethyl)pyridin-4-yl]oxy}phenyl)amino]pyrimidin-4-yl}propan-1-ol] | ≤ 500 | 
Nc1nc(/C=C/CCO)cc(Nc2ccc(Oc3ccnc(C(F)(F)F)c3)cc2)n1 [Example 8, (3E)-4-[2-amino-6-[(4-{[2-(trifluoromethyl)pyridin-4-yl]oxy}phenyl)amino]pyrimidin-4-yl]but-3-en-1-ol] | ≤ 500 | 
Nc1nc(C#Cc2ccc(F)cc2)cc(Nc2ccc(Oc3ccnc(C(F)(F)F)c3)cc2)n1 [Example 22, 6-[(4-fluorophenyl)ethynyl]-N^4-(4-{[2-(trifluoromethyl)pyridin-4-yl]oxy}phenyl)pyrimidine-2,4-diamine] | ≤ 500 | 
Nc1nc(CCC(O)CO)cc(Nc2ccc(Oc3ccnc(C(F)(F)F)c3)cc2)n1 (stereo not drawn) [Example 17, 4-{2-amino-6-[(4-{[2-(trifluoromethyl)pyridin-4-yl]oxy}phenyl)amino]pyrimidin-4-yl}butane-1,2-diol] | > 500 | ≤ 10000
N#Cc1cc(Oc2ccc(Nc3cc(/C=C/c4ccc(F)cc4)nc(N)n3)cc2)ccn1 [Example 3, 4-[4-({2-amino-6-[(E)-2-(4-fluorophenyl)vinyl]pyrimidin-4-yl}amino)phenoxy]pyridine-2-carbonitrile] | ≤ 500 | 
Nc1ccc(/C=C/c2cc(Nc3ccc(Oc4ccnc(C(F)(F)F)c4)cc3)nc(N)n2)cc1 [Example 39A, 6-[(E)-2-(4-aminophenyl)vinyl]-N^4-(4-{[2-(trifluoromethyl)pyridin-4-yl]oxy}phenyl)pyrimidine-2,4-diamine trifluoroacetate] | > 500 | ≤ 10000
Nc1ccc(CCc2cc(Nc3ccc(Oc4ccnc(C(F)(F)F)c4)cc3)nc(N)n2)cc1 [Example 40, 6-[2-(4-aminophenyl)ethyl]-N^4-(4-{[2-(trifluoromethyl)pyridin-4-yl]oxy}phenyl)pyrimidine-2,4-diamine trifluoroacetate] | ≤ 500 | 
